Results: article PMC6026317, “Molecular elements in FGF19 and FGF21 defining KLB/FGFR activity and specificity” (Molecular Metabolism, 2018)
Ends that are not written are not given here.

Tests used:
[1] = test system: FGF21-induced ERK phosphorylation in human KLB overexpressing 293T HEK cells (293/KLB); assay: Peptide antagonism of FGF21-induced pERK, AlphaLISA; assay type: cell-based; settings: 293/KLB cells; fixed dose of FGF21, 10 min at 37° C; n = 3
Procedure: (§1) 293T HEK cells expressing KLB (or KL) or Hep3B cells were plated to 5–6 x 10^4 cells/well density in 96-well cell culture plate coated with poly-D-Lysine (Corning). The cells were serum starved for four hours in 0.1% BSA fraction V (ThermoFisher) containing media prior to treatment with protein and/or an antagonist peptide at the mentioned concentrations for 10 min at 37° C. For the antagonist assays, a chosen fixed dose within the range of 0.8–30 nM (depending on the cell type) of FGF21 or FGF19 stimulant was added to all the wells. BaF3 cells expressing human KLB/FGFR1c or human KLB/FGFR4-1c chimera were seeded at 5 × 10^5 cells/well density in 96-well cell culture plate and serum-starved overnight. FGF21/19 analogs were diluted in 0.02% Tween-20 containing RPMI1640 medium and the cells were treated for 15 min at 37° C. Following the respective cell treatments, the cells were lysed (with lysis buffer provided in the kit) for 10 min at room temperature on a shaker and the lysate was mixed with reaction mixture (consisting of reaction buffer, activation buffer, acceptor and donor beads provided in the kit). Phosphorylated ERK1/2 (pERK) levels were subsequently recorded by EnSpire Alpha or Envision Multilabel plate reader (Perkin Elmer). The cell assays corresponding to 293/KLB or Hep3B cells were carried out with AlphaLISA SureFire Ultra pERK1/2 (Thr 202/Tyr204) kit (Perkin Elmer), and BaF3 cells were done using AlphaScreen pERK1/2 (Thr202/Tyr204) kit (Perkin Elmer).
All cellular phosphorylation data were analyzed using 3-parameter non-linear regression curve in GraphPad Prism 7. Graphs are represented as relative maximal (100%) response of the positive control. All other test analog signals were adjusted accordingly as % values. For antagonistic assays, the difference between the p-ERK signal at baseline (fixed dose of FGF-stimulation, no antagonist peptide added) and the highest dose of the positive control, either FGF21^18−181, 21C25 or 19C26 for respective assay, was set to 100%. Similarly, for an agonist assay, the difference between the p-ERK signal of baseline (only cell culture medium, no agonist) and the highest dose of the positive control either FGF21 in 293/KLB cells or FGF19 in Hep3B cells was used to establish 100% response. Each peptide and protein analog was tested in triplicates in three independent experiments (n = 3), and normalized graphs plotted are expressed as mean ± SD unless otherwise noted.
The C-terminal region of FGF21 binds to KLB as previously implied by FGF21^18−181 antagonism. […] For comparative purposes, we utilized an in vitro assay in which we monitored dose-dependent attenuation of FGF-induced ERK phosphorylation in human KLB overexpressing 293T HEK cells (293/KLB).

[2] = test system: FGF19 signaling in 293/KLB cells; assay: Peptide antagonism of FGF19-induced pERK, AlphaLISA; assay type: cell-based, human; settings: fixed dose of FGF19, 10 min at 37° C, n = 3
Procedure: as §1, with “Following the respective cell treatments, the cells were lysed (with lysis buffer provided in the kit) for 10 min at room temperature on a shaker and the lysate was mixed with reaction mixture (consisting of reaction buffer, activation buffer, acceptor and donor beads provided in the kit).” left out, “The cell assays corresponding to 293/KLB or Hep3B cells were carried out with AlphaLISA SureFire Ultra pERK1/2 (Thr 202/Tyr204) kit (Perkin Elmer), and BaF3 cells were done using AlphaScreen pERK1/2 (Thr202/Tyr204) kit (Perkin Elmer).” left out
(§2) All cellular phosphorylation data were analyzed using 3-parameter non-linear regression curve in GraphPad Prism 7. […] Each peptide and protein analog was tested in triplicates in three independent experiments (n = 3), and normalized graphs plotted are expressed as mean ± SD unless otherwise noted.

[3] = test system: lean (C57BL/6J) mice; assay: In vivo peptide antagonism study, cFos and EGR1 mRNA in pancreas and eWAT; design: species or system mouse; settings: WAT and pancreas
From the text: All animal studies were approved by and performed according to the guidelines of the Institutional Animal Care and Use Committee of the University of Cincinnati (Cincinnati, USA). Eight-week old male C57BL/6J mice (Jackson Laboratories) were given ad libitum access to either a chow diet (lean mice), or a high-fat high-sugar diet (HFD, DIO mice) containing 58% kcal from fat (Research Diets, catalog# D12331). For DIO mice, animals were maintained on the HFD for a minimum of 3 months prior to initiation of the pharmacological studies. The mice were maintained at 22 °C on a 12-h light–dark cycle with free access to water. Before the beginning of the studies, mice were randomized into treatment groups according to body weight. All injections and tests were performed during the light cycle with a group size of n = 8.
Mice were administered vehicle, FGF21 (1 mg/kg), or FGF19 (1 mg/kg) alone or in combination with 19C26,A^26 (30 mg/kg), (dosed 15 min prior to FGF21 or FGF19 administration) via sc injections. One-hour post FGF21 or FGF19 dosing, the mice were sacrificed and their plasma, pancreas, and epididymal white adipose tissue (eWAT) were harvested for analyses. Total RNA was isolated from pancreatic and eWAT tissues using Trizol phenol-chloroform extraction (Invitrogen, Cat#155596026) and purified using an RNeasy mini (Cat#74104) and on-column DNAse digest (Cat#79254) kits (Qiagen). Following reverse transcription, levels of cFos and early growth response-1 (EGR1) mRNA levels were subsequently probed by quantitative PCR (ThermoFisher) and analyzed by ΔΔCT method.
Statistical analyses for in vivo experiments were performed on data using a one- (Figure 5A,B and 5D) or two-way (Figure 5C) ANOVA followed by Tukey post hoc multiple comparison analysis. All results are presented as mean ± SEM, n = 5–8, and P < 0.05 was considered significant. Group size estimations were based upon a power calculation to minimally yield an 80% chance to detect a significant difference in body weight of P < 0.05.

[4] = test system: signaling of FGF1 in 293/KLB cells; assay: Peptide antagonism of FGF1 signaling in 293/KLB cells; assay type: cell-based, human; settings: data not shown
[5] = test system: FGF19 signaling in Hep3B cells; assay: Peptide antagonism of FGF19 signaling in Hep3B cells; assay type: cell-based, human; settings: n = 3
Procedure: as §1, with “Following the respective cell treatments, the cells were lysed (with lysis buffer provided in the kit) for 10 min at room temperature on a shaker and the lysate was mixed with reaction mixture (consisting of reaction buffer, activation buffer, acceptor and donor beads provided in the kit).” left out, “The cell assays corresponding to 293/KLB or Hep3B cells were carried out with AlphaLISA SureFire Ultra pERK1/2 (Thr 202/Tyr204) kit (Perkin Elmer), and BaF3 cells were done using AlphaScreen pERK1/2 (Thr202/Tyr204) kit (Perkin Elmer).” left out
as §2

[6] = test system: signaling of FGF23 in 293/KL cells overexpressing human Klotho; assay: Peptide antagonism of FGF23 signaling in 293/KL cells; assay type: cell-based; settings: data not shown
[7] = test system: 293/KLB cells; assay: Agonist pERK AlphaLISA assay in 293/KLB cells; assay type: cell-based, human; settings: 10 min at 37° C, n = 3
Procedure: as §1
All cellular phosphorylation data were analyzed using 3-parameter non-linear regression curve in GraphPad Prism 7. Graphs are represented as relative maximal (100%) response of the positive control. All other test analog signals were adjusted accordingly as % values. […] Each peptide and protein analog was tested in triplicates in three independent experiments (n = 3), and normalized graphs plotted are expressed as mean ± SD unless otherwise noted.

[8] = target: T1, human FGFR1c/KLB (Homo sapiens, UniProt P11362+Q86Z14); assay: AlphaScreen cell-free binding assay, displacement of biotinylated FGF21; settings: peptides compete with FGF21 for human FGFR1/KLB complex, mean, n = 2, NC = Not Calculated due to negligible activity at the tested concentrations
T1 construct: while adding human soluble KLB generated a signal; purchased R&D Systems
T1 sequence (Q86Z14 1-996 limits assumed): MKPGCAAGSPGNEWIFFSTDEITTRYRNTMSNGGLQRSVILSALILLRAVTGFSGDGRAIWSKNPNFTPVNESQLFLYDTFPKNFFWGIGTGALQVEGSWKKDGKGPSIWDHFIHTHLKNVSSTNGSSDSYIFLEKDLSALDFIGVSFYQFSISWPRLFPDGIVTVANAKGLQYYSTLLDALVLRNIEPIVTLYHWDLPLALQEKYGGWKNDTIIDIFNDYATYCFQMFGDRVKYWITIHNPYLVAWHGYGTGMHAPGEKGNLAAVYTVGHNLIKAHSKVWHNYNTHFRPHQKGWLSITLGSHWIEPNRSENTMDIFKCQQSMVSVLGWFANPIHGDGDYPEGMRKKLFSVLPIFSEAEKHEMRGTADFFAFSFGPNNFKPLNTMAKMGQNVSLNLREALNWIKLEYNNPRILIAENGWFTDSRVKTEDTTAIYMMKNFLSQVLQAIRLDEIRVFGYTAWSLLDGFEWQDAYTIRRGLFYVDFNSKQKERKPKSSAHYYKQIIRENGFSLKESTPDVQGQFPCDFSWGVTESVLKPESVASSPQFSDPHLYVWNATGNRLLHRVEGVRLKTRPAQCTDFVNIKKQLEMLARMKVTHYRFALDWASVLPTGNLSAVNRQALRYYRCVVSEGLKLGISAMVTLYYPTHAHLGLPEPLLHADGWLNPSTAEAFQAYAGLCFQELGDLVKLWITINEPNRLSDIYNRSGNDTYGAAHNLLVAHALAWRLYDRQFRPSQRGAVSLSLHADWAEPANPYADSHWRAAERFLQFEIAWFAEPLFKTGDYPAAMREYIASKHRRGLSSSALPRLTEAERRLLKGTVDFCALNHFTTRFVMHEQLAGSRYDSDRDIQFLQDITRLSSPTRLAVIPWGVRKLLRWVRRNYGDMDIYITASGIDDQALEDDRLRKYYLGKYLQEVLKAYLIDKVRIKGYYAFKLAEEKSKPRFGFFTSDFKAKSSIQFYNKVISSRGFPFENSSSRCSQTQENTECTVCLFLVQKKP
T1 sequence (P11362 22-376 partner limits assumed): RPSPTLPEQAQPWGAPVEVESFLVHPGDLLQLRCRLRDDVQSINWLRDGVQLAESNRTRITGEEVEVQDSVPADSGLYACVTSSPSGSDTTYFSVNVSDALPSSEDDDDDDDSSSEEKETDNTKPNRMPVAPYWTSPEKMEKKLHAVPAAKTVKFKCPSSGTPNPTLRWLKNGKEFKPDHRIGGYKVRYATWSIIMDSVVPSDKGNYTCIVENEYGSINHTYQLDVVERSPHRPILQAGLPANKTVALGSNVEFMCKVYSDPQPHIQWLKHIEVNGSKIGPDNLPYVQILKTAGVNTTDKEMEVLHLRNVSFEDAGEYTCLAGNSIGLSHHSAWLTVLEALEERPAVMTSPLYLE
Procedure: Biotinylated FGF21 was coupled to Streptavidin-coated donor beads (AlphaScreen technology, Perkin Elmer), and the ectodomains of human FGFR4 fused to Fc (R&D Systems) or FGFR1c fused to Fc (R&D Systems) were coupled to Protein A acceptor beads (AlphaScreen technology, Perkin Elmer). Human KLB protein (R&D Systems) was added to the mixture of biotinylated-FGF21-Streptavidin donor beads and FGFR-Fc-Protein A acceptor beads, bringing the beads in close proximity producing a signal, in the presence of 5 μg/ml Heparin and 0.1% BSA. Increasing doses of FGF21 C-terminal peptides were added and if their binding to the receptor complex were to take place, the biotinylated FGF21 would be displaced to consequently decrease the signal. The EnVision Multilabel Plate Reader (Perkin Elmer) was used to quantify the emitted light signal at 570 nm.
Supplementary file mmc1.pdf: Multimedia component 1 Table S1. Nomenclature for FGF protein and C-terminal peptide analogs. Table S2. Receptor binding of C-terminal FGF21 Ala-scan peptides. IC50 values (μM, mean, n = 2) with fold-change for 21C25 Ala-scan peptides versus native peptide in a cell free AlphaScreen binding assay where the 21C25 Ala peptides competed with FGF21 to associate with the human FGFR1/KLB complex. NC denotes where IC50 values were Not Calculated due to negligible activity at the tested concentrations.

With “19C25: FGF19-based C-terminal peptide of 25 amino acids (LETDSMDPFGLVTGLEAVRSPSFEK-NH2)” the “Antagonism of FGF21 signaling (pERK), in words” value (“Antagonism of FGF21 signaling” for short) [1] was “comparable to FGF21^18−181 in their antagonistic effect”.
With “19C26,A^26: 19C26 with alanine substitution of the terminal lysine; most potent peptide antagonist (PLETDSMDPFGLVTGLEAVRSPSFEA-NH2)” the “Antagonism of FGF21 signaling” value [1] was “at least twenty-fold greater potency”, the “Antagonism of FGF19 signaling (pERK), in words” value (from here on “Antagonism of FGF19 signaling”) [2] was “at least twenty-fold greater potency” and the “cFos and EGR1 mRNA levels, peptide antagonist alone” value ([3]; 30 mg/kg sc) was “no effect on cFos and EGR1 mRNA levels”. For the same substance, the “Block of FGF19- or FGF21-stimulated cFos and EGR1 gene induction” value ([3]; antagonist 30 mg/kg sc 15 min before FGF19 or FGF21 1 mg/kg sc, one hour post dosing) was “completely eliminated the ability of FGF19 or FGF21 to stimulate gene induction”.
In the case of “19C26: FGF19-based C-terminal peptide of 26 amino acids (169-194), C-terminal amide (PLETDSMDPFGLVTGLEAVRSPSFEK-NH2)”, the “Attenuation of FGF1 signaling, in words” value [4] is reported as “unable to attenuate signaling of FGF1”, the “Antagonism of FGF21 signaling” value [1] is reported as “comparable to FGF21^18−181 in their antagonistic effect” and the “Antagonism of FGF19 signaling” value [2] is reported as “blocked FGF19 activity comparably to that of FGF21”. For the same substance, the “Antagonism of FGF19 signaling” value [5] was “blocked FGF19 activity comparably to that of FGF21” and the “Attenuation of FGF23 signaling, in words” value [6] was “unable to attenuate signaling”.
“21C22: C-terminal FGF21 peptide of 22 residues (VGSSDPLSMVGPSQGRSPSYAS-NH2; UniProt Q9NSA1 188-209, looked up, fragment)” was tested, and the “Antagonism of FGF21 signaling” value [1] was “had no effect within the dose range examined”.
In the case of FGF2, the “pERK agonist activity, in words” value [7] is reported as “picomolar activities”.
With “FGF19: Human FGF19 (#O95750: 23–216, designated 1–194)” the “pERK agonist activity, in words” value [7] was “nanomolar potencies” and the “cFos and EGR1 transcriptional activity, FGF alone” value ([3]; 1 mg/kg sc, one hour) was “induced robust transcriptional activity in each tissue”.
PPDVGSSDPLSMVGPSQARSPSYAS-NH2 [174 G] showed an IC50 [8] of 150 nM.
PPDVGSSDPLSMVGPSQGASPSYAS-NH2 [175 R] was tested, and the IC50 [8] was 50 nM.
PPDVGSSDPLSMVGPSQGRSPSYAA-NH2 [181 S] gave an IC50 [8] of 50 nM.
With PPDVGSSDPLSMVGPSQGRSPSYAS-NH2 [21C25] the IC50 [8] was 150 nM.
